Measured values reported in the supplement of paper PMC10307832.

Experiments:
Assay in all cases: relative viability (nuclei count vs DMSO), 5 days (fraction); higher = more cells survive
Motesanib + Navitoclax = compound: CC1(C)CNc2cc(NC(=O)c3cccnc3NCc3ccncc3)ccc21 [Motesanib] + CC1(C)CCC(c2ccc(Cl)cc2)=C(CN2CCN(c3ccc(C(=O)NS(=O)(=O)c4ccc(N[C@H](CCN5CCOCC5)CSc5ccccc5)c(S(=O)(=O)C(F)(F)F)c4)cc3)CC2)C1 [Navitoclax] (partner 0.5 µM)
Summary of the method: (§1)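 Medians of duplicate plates are given as relative viability. That measure is the nuclei count in treated wells divided by the count in vehicle wells. Counts were taken on 4× images of lung cancer cell lines in 1536-well plates, 5 days after pin-tool dosing the day after seeding with one drug alone or a fixed anchor-drug dose plus five library-drug doses (not always all listed) in √10 steps.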

[1] = compound: C[C@@]1(C(=O)Nc2ccc(F)nc2)CCCN1c1nc(Nc2cc(C3CC3)n[nH]2)c2cccn2n1
Summary of the method: (§2)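 Hoechst staining, done together with fixation and permeabilisation, marked nuclei for 4× imaging and MetaXpress counting. This followed 5 days without medium change after lung cancer cell lines, kept overnight at 37 °C in 1536-well plates, were pinned with five library-drug doses (not always all listed) spaced by √10 on vehicle-anchored plates. Viability is the ratio of treated-well to vehicle-well nuclei, expressed as a median across plates. Plates passed only at control CV below 25% with at least one doubling.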

Motesanib = compound: CC1(C)CNc2cc(NC(=O)c3cccnc3NCc3ccncc3)ccc21 [Motesanib]
Summary of the method: as §2

Motesanib + Foretinib = compound: CC1(C)CNc2cc(NC(=O)c3cccnc3NCc3ccncc3)ccc21 [Motesanib] + COc1cc2c(Oc3ccc(NC(=O)C4(C(=O)Nc5ccc(F)cc5)CC4)cc3F)ccnc2cc1OCCCN1CCOCC1 [Foretinib] (partner 0.25 µM)
Summary of the method: as §1

Cell Line | relative viability (Motesanib + Navitoclax; first compound 0.01 µM) | relative viability (Motesanib + Navitoclax; first compound 0.03162 µM) | relative viability (Motesanib + Navitoclax; first compound 0.1 µM) | relative viability (Motesanib + Navitoclax; first compound 0.3162 µM) | relative viability (Motesanib + Navitoclax; first compound 1 µM) | relative viability ([1]; 0.04 µM) | relative viability ([1]; 0.1265 µM) | relative viability ([1]; 0.4 µM) | relative viability ([1]; 1.265 µM) | relative viability (Motesanib; 0.01 µM) | relative viability (Motesanib; 0.03162 µM) | relative viability (Motesanib; 0.1 µM) | relative viability (Motesanib; 0.3162 µM) | relative viability (Motesanib; 1 µM) | relative viability (Motesanib + Foretinib; first compound 0.01 µM) | relative viability (Motesanib + Foretinib; first compound 0.03162 µM) | relative viability (Motesanib + Foretinib; first compound 0.1 µM) | relative viability (Motesanib + Foretinib; first compound 0.3162 µM) | relative viability (Motesanib + Foretinib; first compound 1 µM)
HCC-44 | 0.986 | 0.96 | 0.994 | 1.04 | 0.997 | 0.99 | 0.904 | 0.716 | 0.737 | 0.978 | 0.957 | 1.02 | 1.04 | 0.989 |  |  |  |  | 
HCC-827 | 1.11 | 1.01 | 1.07 | 1.05 | 1.02 | 1.02 | 1.01 | 0.968 | 1.07 | 1.09 | 1.08 | 1.06 | 1.07 | 1.09 | 0.963 | 1.09 | 1.02 | 1.08 | 1.03
NCI-H1623 |  |  |  |  |  | 0.809 | 0.79 | 0.678 | 0.622 | 1.06 | 1.08 | 0.901 | 0.964 | 0.926 | 0.869 | 0.889 | 0.763 | 0.871 | 0.873
NCI-H2347 | 0.816 | 0.751 | 0.712 | 0.882 | 1.02 | 1.03 | 0.922 | 0.908 | 0.967 | 1.01 | 1.04 | 1.15 | 0.983 | 1.04 | 0.85 | 0.429 | 1.14 | 0.614 | 1.86
PC-14 | 1.03 | 1.06 | 1 | 1.06 | 1.05 | 1.04 | 0.769 | 0.875 | 0.946 | 0.977 | 0.995 | 0.974 | 1.07 | 1.05 | 0.922 | 0.997 | 1 | 1.01 | 1.06
NCI-H1651 | 1.08 | 0.946 | 1.09 | 0.994 | 1 | 0.956 | 0.883 | 0.82 | 0.923 | 1.02 | 0.912 | 0.946 | 0.962 | 0.947 | 0.824 | 0.877 | 0.845 | 0.82 | 0.982
HARA | 1.11 | 1.18 | 1.21 | 1.2 | 1.22 | 0.815 | 1.01 | 0.756 | 0.723 | 0.959 | 1.1 | 0.909 | 1.09 | 0.997 | 0.94 | 0.801 | 0.906 | 0.915 | 0.881
NCI-H1650 | 1.19 |  | 1.17 | 1.44 | 1.23 | 0.894 | 0.843 | 0.798 | 0.699 | 1.03 | 0.792 | 1.06 | 0.947 | 0.927 | 1.25 | 0.816 | 1.16 | 1.27 | 1.23
NCI-H1563 |  |  |  |  |  | 1.04 | 0.918 | 0.805 | 0.934 | 1.04 | 0.973 | 1.09 | 0.953 | 0.994 | 0.904 | 0.899 | 0.915 | 0.909 | 0.889
ABC-1 |  |  |  |  |  | 0.884 | 0.738 | 0.51 | 0.507 | 0.919 | 0.938 | 0.863 | 1.09 | 0.97 | 1.1 | 1.06 | 1.04 | 1.05 | 1.2
NCI-H522 |  |  |  |  |  | 0.925 | 0.836 | 0.754 | 0.878 | 0.939 | 1.01 | 1.06 | 1.06 | 1.07 |  |  |  |  | 
SW 900 |  |  |  |  |  | 0.746 | 0.727 | 0.81 | 0.673 | 0.834 | 0.782 | 0.809 | 0.9 | 0.799 | 0.824 | 0.9 | 1.36 | 0.887 | 0.874
NCI-H1792 | 0.612 | 0.605 | 0.584 | 0.578 | 0.703 | 0.602 | 0.423 | 0.383 | 0.295 | 0.742 | 0.805 | 0.908 | 0.918 | 1.12 |  |  |  |  | 
LCLC-103H |  |  |  |  |  | 0.896 | 0.922 | 0.799 | 0.885 | 0.914 | 0.958 | 0.974 | 1.02 | 1.06 | 0.809 | 0.707 | 0.844 | 0.867 | 0.937
NCI-H358 |  |  |  |  |  | 0.752 | 0.46 | 0.237 | 0.326 | 0.973 | 0.948 | 0.959 | 1.16 | 1.2 | 0.599 | 0.712 | 0.67 | 0.807 | 0.629
NCI-H1648 |  |  |  |  |  | 0.837 | 0.57 | 0.499 | 0.636 | 0.744 | 0.658 | 0.71 | 1.1 | 0.556 |  |  |  |  | 
NCI-H2342 |  |  |  |  |  | 1.16 | 0.863 | 0.805 | 0.7 | 0.902 | 0.976 | 1.05 | 0.928 | 1.06 | 1.03 | 1.09 | 1.12 | 1.1 | 0.971
NCI-H650 |  |  |  |  |  | 0.841 | 0.649 | 0.784 | 0.585 | 0.976 | 1.04 | 0.992 | 1.07 | 0.907 | 1.05 |  | 1.02 | 0.974 | 1.02
NCI-H661 |  |  |  |  |  | 1.04 | 1.04 | 1.01 | 0.875 | 0.972 | 1.02 | 0.985 | 1.04 | 0.964 | 0.998 | 1.1 | 0.991 | 1.13 | 0.9
